In ChEMBL document CHEMBL4334438, “Discovery of novel glycogen synthase kinase-3α inhibitors: Structure-based virtual screening, preliminary SAR and biological evaluation for treatment of acute myeloid leukemia” (Eur J Med Chem, 2019):

Assays:
[1] = biological target: Activin receptor type-1 (Homo sapiens) (UniProt Q04771); experiment: Inhibition of human ALK2 (147 to end residues) assessed as residual activity at 1 uM using casein as substrate incubated for 40 mins in presence of [gamma-33ATP] by scintillation counting based radiometry assay relative to control
[2] = biological target: Serine/threonine-protein kinase B-raf (Homo sapiens) (UniProt P15056); experiment: Inhibition of recombinant full length human B-Raf (416 to end residues) assessed as residual activity at 1 uM using myelin basic protein substrate incubated for 40 mins in presence of [gamma-33ATP] by scintillation counting based radiometry assay relative to control
[3] = biological target: Cyclin-dependent kinase 5/CDK5 activator 1 (Homo sapiens) (UniProt Q00535+Q15078); experiment: Inhibition of recombinant full length human CDK5/p35 assessed as residual activity at 1 uM using histone H1 as substrate incubated for 40 mins in presence of [gamma-33ATP] by scintillation counting based radiometry assay relative to control; assay type: protein-complex assay
[4] = biological target: Serine/threonine-protein kinase DCLK2 (Homo sapiens) (UniProt Q8N568); experiment: Inhibition of recombinant human DCAMKL2 (376 to end residues) assessed as residual activity at 1 uM using KKLNRTLSFAEPG as substrate at 40 mins in presence of [gamma-33ATP] by scintillation counting based radiometry assay relative to control
[5] = biological target: Serine/threonine-protein kinase 17B (Homo sapiens) (UniProt O94768); experiment: Inhibition of recombinant human DRAK2 assessed as residual activity at 1 uM using KKRPQRRYSNVF as substrate at 120 mins in presence of [gamma-33ATP] by scintillation counting based radiometry assay relative to control
[6] = biological target: Ephrin type-A receptor 1 (Homo sapiens) (UniProt P21709); experiment: Inhibition of recombinant human EphA1 (568 to end residues) assessed as residual activity at 1 uM using KKKSPGEYVNIEFG as substrate at 40 mins in presence of [gamma-33ATP] by scintillation counting based radiometry assay relative to control
[7] = biological target: Ephrin type-A receptor 2 (Homo sapiens) (UniProt P29317); experiment: Inhibition of recombinant human EphA2 (596 to 900 residues) assessed as residual activity at 1 uM using poly(Glu, Tyr) 4:1 as substrate at 40 mins in presence of [gamma-33ATP] by scintillation counting based radiometry assay relative to control
[8] = tested on: Fibroblast growth factor receptor 1 (Homo sapiens), P11362 [V561M]; experiment: Inhibition of recombinant human FGFR1 V561M mutant (456 to 765 residues) assessed as residual activity at 1 uM using GGEEEEYFELVKKKK as substrate at 40 mins in presence of [gamma-33ATP] by scintillation counting based radiometry assay relative to control
[9] = biological target: G protein-coupled receptor kinase 3 (Homo sapiens) (UniProt P35626); experiment: Inhibition of recombinant full length human GRK3 assessed as residual activity at 1 uM using casein as substrate at 40 mins in presence of [gamma-33ATP] by scintillation counting based radiometry assay relative to control
[10] = biological target: Insulin-like growth factor 1 receptor (Homo sapiens) (UniProt P08069); experiment: Inhibition of human IGF1R (959 to end residues) assessed as residual activity at 1 uM using KKKSPGEYVNIEFG as substrate after 40 mins by [gamma-33ATP] radiometric assay relative to control
[11] = biological target: Insulin-like growth factor 1 receptor (Homo sapiens) (UniProt P08069); experiment: Inhibition of human activated IGF1R (959 to end residues) assessed as residual activity at 1 uM using KKKSPGEYVNIEFG as substrate after 40 mins by [gamma-33ATP] radiometric assay relative to control
[12] = biological target: Insulin receptor (Homo sapiens) (UniProt P06213); experiment: Inhibition of human activated IR (1005 to 1310 residues) assessed as residual activity at 1 uM using KKKSPGEYVNIEFG as substrate after 40 mins by [gamma-33ATP] radiometric assay relative to control
[13] = biological target: Tyrosine-protein kinase ITK/TSK (Homo sapiens) (UniProt Q08881); experiment: Inhibition of human Itk (352 to 617 residues) assessed as residual activity at 1 uM using myelin basic protein as substrate after 40 mins by [gamma-33ATP] radiometric assay relative to control
[14] = biological target: Mitogen-activated protein kinase 8 (Homo sapiens) (UniProt P45983); experiment: Inhibition of human JNK1alpha1 assessed as residual activity at 1 uM using ATF2 as substrate after 40 mins by [gamma-33ATP] radiometric assay relative to control
[15] = biological target: Tyrosine-protein kinase Lck (Homo sapiens) (UniProt P06239); experiment: Inhibition of recombinant full length human LCK assessed as residual activity at 1 uM using KVEKIGEGTYGVVYK as substrate after 40 mins in presence of [gamma-33ATP] by scintillation counting based radiometry assay relative to control
[16] = biological target: Dual specificity mitogen-activated protein kinase kinase 6 (Homo sapiens) (UniProt P52564); experiment: Inhibition of recombinant human MKK6 (4 to end residues) assessed as residual activity at 1 uM using unactive SAPK2a as substrate measured after 40 mins in presence of [gamma33P]ATP by scintillation counting method
[17] = biological target: cGMP-dependent protein kinase 2 (Homo sapiens) (UniProt Q13237); experiment: Inhibition of recombinant full-length human PRKG2 assessed as residual activity at 1 uM using KKLRRTLSFAEPG as substrate measured after 40 mins in presence of [gamma33P]ATP by scintillation counting method relative to control
[18] = biological target: Ribosomal protein S6 kinase alpha-6 (Homo sapiens) (UniProt Q9UK32); experiment: Inhibition of recombinant full length human Rsk4 assessed as residual activity at 1 uM using LRRASLG as substrate measured after 40 mins in presence of [gamma33P]ATP by scintillation counting method relative to control
[19] = tested on: Proto-oncogene tyrosine-protein kinase Src (Homo sapiens), P12931 [T341M]; experiment: Inhibition of recombinant full-length human Src T341M mutant at 1 uM assessed as residual activity at 1 uM using GGEEEEYFELVKKKK as substrate measured after 40 mins in presence of [gamma33P]ATP by scintillation counting method relative to control
[20] = biological target: Tyrosine-protein kinase Srms (Homo sapiens) (UniProt Q9H3Y6); experiment: Inhibition of human SRMS assessed as residual activity at 1 uM by radiometric method relative to control
[21] = biological target: Non-receptor tyrosine-protein kinase TYK2 (Homo sapiens) (UniProt P29597); experiment: Inhibition of human TYK2 (875 to end residues) assessed as residual activity at 1 uM using GGMEDIYFEFMGGKKK as substrate measured after 40 mins in presence of [gamma33P]ATP by scintillation counting method relative to control
[22] = biological target: Serine-protein kinase ATM (Homo sapiens) (UniProt Q13315); experiment: Inhibition of recombinant full-length human ATM at 1 uM assessed as residual activity at 1 uM using GST-cMyc-p53 as substrate measured after 40 mins by ELISA

Chain of Insulin-like growth factor 1 receptor (Homo sapiens) (P08069 31-736 limits assumed): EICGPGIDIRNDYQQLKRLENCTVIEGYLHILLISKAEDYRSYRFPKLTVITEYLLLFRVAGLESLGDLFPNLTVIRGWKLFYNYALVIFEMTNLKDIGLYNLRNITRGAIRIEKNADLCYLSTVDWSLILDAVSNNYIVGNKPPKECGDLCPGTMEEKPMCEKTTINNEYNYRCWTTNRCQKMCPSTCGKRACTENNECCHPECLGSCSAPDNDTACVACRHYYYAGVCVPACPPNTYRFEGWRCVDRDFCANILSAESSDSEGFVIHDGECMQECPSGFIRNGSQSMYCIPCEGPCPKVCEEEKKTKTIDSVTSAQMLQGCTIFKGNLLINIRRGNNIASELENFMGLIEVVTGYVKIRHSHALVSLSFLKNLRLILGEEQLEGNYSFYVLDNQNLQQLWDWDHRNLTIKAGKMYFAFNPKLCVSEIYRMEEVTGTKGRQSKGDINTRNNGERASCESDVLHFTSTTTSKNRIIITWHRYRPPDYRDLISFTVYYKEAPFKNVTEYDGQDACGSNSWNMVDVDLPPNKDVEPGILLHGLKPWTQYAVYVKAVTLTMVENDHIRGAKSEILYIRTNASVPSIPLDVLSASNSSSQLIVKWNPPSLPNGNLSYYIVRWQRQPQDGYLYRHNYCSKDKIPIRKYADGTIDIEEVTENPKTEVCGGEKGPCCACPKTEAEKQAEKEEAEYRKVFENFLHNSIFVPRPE
Chain of Insulin-like growth factor 1 receptor (Homo sapiens) (P08069 741-1367 limits assumed): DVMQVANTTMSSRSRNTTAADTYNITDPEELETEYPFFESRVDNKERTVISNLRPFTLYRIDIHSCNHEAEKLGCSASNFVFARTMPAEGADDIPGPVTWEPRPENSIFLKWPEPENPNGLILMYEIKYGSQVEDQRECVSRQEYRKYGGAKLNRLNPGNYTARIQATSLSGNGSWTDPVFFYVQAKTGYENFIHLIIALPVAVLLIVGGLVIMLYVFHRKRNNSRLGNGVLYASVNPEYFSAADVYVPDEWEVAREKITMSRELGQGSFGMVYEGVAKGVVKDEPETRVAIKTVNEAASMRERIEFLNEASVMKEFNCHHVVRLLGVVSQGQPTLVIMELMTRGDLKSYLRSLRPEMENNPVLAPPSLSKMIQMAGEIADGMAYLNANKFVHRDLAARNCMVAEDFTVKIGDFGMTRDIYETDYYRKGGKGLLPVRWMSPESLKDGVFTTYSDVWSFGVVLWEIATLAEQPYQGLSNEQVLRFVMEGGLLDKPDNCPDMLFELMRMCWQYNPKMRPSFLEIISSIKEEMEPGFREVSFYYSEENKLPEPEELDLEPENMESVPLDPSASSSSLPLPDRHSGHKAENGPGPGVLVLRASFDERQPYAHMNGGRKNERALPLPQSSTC
Chain of Ephrin type-A receptor 1 (Homo sapiens) (P21709 whole entry, the tested form may be a part): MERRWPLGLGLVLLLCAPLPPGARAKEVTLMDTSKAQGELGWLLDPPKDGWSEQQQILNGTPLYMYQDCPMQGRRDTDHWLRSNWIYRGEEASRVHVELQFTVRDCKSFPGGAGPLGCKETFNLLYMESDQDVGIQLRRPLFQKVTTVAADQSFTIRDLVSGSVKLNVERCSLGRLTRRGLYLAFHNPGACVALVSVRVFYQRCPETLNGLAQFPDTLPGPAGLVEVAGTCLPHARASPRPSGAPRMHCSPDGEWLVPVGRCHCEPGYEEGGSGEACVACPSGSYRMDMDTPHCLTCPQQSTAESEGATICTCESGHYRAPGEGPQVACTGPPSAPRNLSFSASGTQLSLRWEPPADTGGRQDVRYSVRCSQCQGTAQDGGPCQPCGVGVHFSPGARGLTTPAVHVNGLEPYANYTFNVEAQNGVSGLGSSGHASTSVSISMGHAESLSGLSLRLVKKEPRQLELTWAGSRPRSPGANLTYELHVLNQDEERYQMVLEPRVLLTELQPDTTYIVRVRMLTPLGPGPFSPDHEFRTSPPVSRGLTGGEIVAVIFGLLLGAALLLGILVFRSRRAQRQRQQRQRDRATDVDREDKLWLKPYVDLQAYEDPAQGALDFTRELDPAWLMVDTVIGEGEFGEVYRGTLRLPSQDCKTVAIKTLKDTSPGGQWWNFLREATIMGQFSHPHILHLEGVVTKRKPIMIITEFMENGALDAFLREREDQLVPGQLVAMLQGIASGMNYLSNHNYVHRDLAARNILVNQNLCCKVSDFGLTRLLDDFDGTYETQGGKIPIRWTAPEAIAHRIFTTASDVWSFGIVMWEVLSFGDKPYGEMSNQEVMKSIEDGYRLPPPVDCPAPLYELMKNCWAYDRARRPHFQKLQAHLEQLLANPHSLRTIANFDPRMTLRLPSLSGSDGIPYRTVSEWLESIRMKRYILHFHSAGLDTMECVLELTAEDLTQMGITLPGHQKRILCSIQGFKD
Chain of Tyrosine-protein kinase Srms (Homo sapiens) (Q9H3Y6 whole entry): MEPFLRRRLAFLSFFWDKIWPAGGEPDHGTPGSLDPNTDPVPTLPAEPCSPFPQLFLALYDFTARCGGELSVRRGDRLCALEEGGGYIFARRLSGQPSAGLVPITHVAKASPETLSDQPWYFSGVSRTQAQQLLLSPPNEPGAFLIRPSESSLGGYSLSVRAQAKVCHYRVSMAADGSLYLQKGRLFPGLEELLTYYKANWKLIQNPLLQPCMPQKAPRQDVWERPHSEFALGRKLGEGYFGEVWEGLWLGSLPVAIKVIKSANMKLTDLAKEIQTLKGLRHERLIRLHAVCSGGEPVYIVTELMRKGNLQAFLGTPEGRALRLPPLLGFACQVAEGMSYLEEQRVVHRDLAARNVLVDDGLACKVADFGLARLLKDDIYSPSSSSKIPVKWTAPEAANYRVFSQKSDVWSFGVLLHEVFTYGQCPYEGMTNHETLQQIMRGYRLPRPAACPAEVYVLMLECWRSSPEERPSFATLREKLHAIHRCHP
Chain of Fibroblast growth factor receptor 1 (Homo sapiens), P11362 [V561M] (P11362 whole entry V561M, the tested form may be a part): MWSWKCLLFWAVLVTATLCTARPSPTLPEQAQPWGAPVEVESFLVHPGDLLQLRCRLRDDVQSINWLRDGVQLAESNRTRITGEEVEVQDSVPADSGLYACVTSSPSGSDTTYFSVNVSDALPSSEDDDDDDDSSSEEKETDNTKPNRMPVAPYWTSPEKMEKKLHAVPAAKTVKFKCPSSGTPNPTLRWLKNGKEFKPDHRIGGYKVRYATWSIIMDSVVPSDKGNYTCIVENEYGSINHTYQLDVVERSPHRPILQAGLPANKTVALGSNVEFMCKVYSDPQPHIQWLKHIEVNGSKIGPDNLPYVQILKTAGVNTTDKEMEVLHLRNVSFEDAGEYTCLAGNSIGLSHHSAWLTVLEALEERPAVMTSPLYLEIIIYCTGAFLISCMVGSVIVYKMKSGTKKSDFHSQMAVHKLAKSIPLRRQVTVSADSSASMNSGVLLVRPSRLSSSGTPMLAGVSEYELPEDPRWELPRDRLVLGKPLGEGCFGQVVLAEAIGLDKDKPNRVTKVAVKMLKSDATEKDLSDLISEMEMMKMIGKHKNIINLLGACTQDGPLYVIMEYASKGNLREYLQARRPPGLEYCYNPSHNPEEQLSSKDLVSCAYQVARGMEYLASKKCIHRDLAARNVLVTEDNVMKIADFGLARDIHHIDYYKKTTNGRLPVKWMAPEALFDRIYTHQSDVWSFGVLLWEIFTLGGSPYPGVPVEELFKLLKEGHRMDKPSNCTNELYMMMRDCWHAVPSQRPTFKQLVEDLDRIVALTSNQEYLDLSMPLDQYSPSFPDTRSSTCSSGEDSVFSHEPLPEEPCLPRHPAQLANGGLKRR
Chain of Activin receptor type-1 (Homo sapiens) (Q04771 whole entry): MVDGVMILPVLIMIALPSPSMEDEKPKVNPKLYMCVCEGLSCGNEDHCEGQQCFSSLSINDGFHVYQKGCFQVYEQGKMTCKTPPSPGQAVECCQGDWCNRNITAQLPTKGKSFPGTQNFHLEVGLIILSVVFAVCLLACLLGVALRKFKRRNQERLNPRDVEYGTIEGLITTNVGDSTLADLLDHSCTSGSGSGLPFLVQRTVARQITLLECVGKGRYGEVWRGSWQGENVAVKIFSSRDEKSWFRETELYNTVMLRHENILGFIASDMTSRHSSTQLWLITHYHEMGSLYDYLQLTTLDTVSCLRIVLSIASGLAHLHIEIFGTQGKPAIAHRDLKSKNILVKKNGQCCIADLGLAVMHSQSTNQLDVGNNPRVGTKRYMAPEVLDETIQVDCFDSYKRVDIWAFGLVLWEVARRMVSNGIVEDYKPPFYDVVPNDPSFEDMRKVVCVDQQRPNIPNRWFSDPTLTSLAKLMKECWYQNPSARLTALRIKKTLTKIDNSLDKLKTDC
Chain of Cyclin-dependent kinase 5/CDK5 activator 1 (Homo sapiens) (Q00535 whole entry): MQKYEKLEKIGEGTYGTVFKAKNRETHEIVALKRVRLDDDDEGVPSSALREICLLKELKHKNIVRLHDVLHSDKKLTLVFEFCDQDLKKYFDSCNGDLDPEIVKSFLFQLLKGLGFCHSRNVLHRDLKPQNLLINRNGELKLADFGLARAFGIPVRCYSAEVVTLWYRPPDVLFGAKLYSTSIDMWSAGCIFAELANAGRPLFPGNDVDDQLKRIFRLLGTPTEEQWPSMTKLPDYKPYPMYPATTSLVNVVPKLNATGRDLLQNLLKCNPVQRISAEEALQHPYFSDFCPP
Chain of Cyclin-dependent kinase 5/CDK5 activator 1 (Homo sapiens) (Q15078 99-307 partner limits assumed): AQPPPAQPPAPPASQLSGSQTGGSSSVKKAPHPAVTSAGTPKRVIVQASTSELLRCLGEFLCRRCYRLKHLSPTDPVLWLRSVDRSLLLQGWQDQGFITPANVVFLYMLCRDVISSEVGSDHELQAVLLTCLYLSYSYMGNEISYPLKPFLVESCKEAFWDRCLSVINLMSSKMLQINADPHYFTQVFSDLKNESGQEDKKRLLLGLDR
Chain of Dual specificity mitogen-activated protein kinase kinase 6 (Homo sapiens) (P52564 whole entry): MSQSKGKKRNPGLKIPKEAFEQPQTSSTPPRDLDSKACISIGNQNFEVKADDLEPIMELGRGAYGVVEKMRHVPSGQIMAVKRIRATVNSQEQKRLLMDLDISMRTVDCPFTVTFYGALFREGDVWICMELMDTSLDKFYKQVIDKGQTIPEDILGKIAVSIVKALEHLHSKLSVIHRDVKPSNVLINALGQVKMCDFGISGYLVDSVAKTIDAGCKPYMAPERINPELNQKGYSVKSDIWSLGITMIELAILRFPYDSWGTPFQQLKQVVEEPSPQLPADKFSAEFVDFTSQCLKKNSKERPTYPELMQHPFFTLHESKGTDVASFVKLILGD

Work on `C=CCOC(=O)c1cc(-c2ccc(/C=C3/NC(=S)NC3=O)o2)ccc1Cl` yielded an Activity [1] of 105%, an Activity [2] of 90% and an Activity [3] of 73%. It also gave an Activity [4] of 104%, an Activity [5] of 80% and an Activity [6] of 104%. The Activity [7] was 92%, the Activity [8] was 102% and the Activity [9] was 117%. For the same compound, the Activity [10] was 88%, the Activity [11] was 96% and the Activity [12] was 106%. It also gave an Activity [13] of 107%, an Activity [14] of 99% and an Activity [15] of 86%. For the same compound, the Activity [16] was 121%, the Activity [17] was 94% and the Activity [18] was 92%. For the same compound, the Activity [19] was 92%, the Activity [20] was 114% and the Activity [21] was 94%. The Activity [22] was 100%.
With `N=C1NC(=O)/C(=C\c2ccc(-c3cccc([N+](=O)[O-])c3)o2)S1` the Activity [1] was 101%, the Activity [2] was 97% and the Activity [3] was 53%. The Activity [4] was 102%, the Activity [5] was 59% and the Activity [6] was 100%. The Activity [7] was 100%, the Activity [8] was 91% and the Activity [9] was 94%. It also gave an Activity [10] of 108%, an Activity [11] of 99% and an Activity [12] of 103%. For the same compound, the Activity [13] was 98%, the Activity [14] was 101% and the Activity [15] was 89%. The Activity [16] was 78%, the Activity [17] was 51% and the Activity [18] was 99%. For the same compound, the Activity [19] was 97%, the Activity [20] was 95% and the Activity [21] was 107%. It also gave an Activity [22] of 102%.
